Blank lines part the entries; values can stand above or below the molecule they belong to.
What was measured:
Heparanase = molecular target: T1, Heparanase (Homo sapiens, UniProt Q9Y251); assay: Inhibitory activity against heparanase from human platelets
T1 sequence (Q9Y251 whole entry): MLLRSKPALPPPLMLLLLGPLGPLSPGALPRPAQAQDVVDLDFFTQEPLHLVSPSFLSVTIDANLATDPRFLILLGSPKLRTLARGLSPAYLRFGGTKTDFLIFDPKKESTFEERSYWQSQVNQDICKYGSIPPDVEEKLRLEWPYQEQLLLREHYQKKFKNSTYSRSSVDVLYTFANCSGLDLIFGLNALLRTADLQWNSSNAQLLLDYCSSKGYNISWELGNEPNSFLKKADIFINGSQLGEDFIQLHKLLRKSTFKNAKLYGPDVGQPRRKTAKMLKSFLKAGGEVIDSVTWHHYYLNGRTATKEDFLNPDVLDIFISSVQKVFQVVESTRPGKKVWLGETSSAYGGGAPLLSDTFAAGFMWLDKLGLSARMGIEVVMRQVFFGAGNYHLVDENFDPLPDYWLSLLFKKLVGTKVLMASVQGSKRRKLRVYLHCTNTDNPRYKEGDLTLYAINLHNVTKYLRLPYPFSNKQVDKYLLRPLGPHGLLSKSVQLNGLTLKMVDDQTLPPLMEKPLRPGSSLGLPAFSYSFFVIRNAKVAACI

[1] = molecular target: T2, Heparanase (Homo sapiens) (UniProt Q9Y251); assay: Inhibitory activity against heparanase from human platelets at 0.83 uM
T2 sequence (whole entry): T1 sequence (Q9Y251 whole entry)

[2] = molecular target: T2, Heparanase (Homo sapiens); assay: Inhibitory activity against heparanase from human platelets at 25 uM
[3] = Plasma concentration in mice after 4 hrs of administration of 50 mg/kg, ip; type: ADME, organism-based; design: dose 50 mg/kg, route intraperitoneal; details: mouse
[4] = Plasma concentration in mice after 1 hr of administration of 50 mg/kg, ip; type: ADME, organism-based; design: dose 50 mg/kg, route intraperitoneal; details: mouse
[5] = Plasma concentration in mice after 1 hr of administration of 30 mg/kg, po; type: ADME, organism-based; design: dose 30 mg/kg, route oral; details: mouse
[6] = Plasma concentration in mice after 4 hrs of administration of 30 mg/kg, po; type: ADME, organism-based; design: dose 30 mg/kg, route oral; details: mouse

IC50 (Heparanase): > 15 µM
SMILES: COc1ccc(CNc2ccc(-c3nc4ccccc4[nH]3)cc2)cc1Br

inhibition [1]: < 10%
SMILES: COc1ccc(C(=O)Nc2ccc(CNc3cccc(-c4nc5ccccc5[nH]4)c3)cc2)cc1Br

inhibition [2]: 73%
SMILES: CCOc1ccc(C(=O)Nc2ccc(-c3nc4cc(OC)ccc4[nH]3)cc2)cc1Br

concentration at 4 h [3]: 380 nM | concentration at 1 h [4]: 530 nM
SMILES: CCOc1ccc(C(=O)Nc2ccc(-c3nc4ccccc4[nH]3)cc2)cc1Br

concentration at 4 h [3]: 670 nM | concentration at 1 h [4]: 2240 nM
SMILES: COc1ccc(C(=O)Nc2ccc(-c3nc4ccccc4[nH]3)cc2)cc1Br

IC50 (Heparanase): > 15 µM
SMILES: COc1ccc(C(=O)Nc2ccc(-c3nc4ccccc4[nH]3)cc2)cc1Cl

IC50 (Heparanase): > 15 µM
SMILES: COc1ccc(C(=O)Nc2ccc(-c3nc4ccccc4[nH]3)cc2)cc1F

inhibition [2]: 30%
SMILES: CCOc1ccc(C(=O)Nc2ccc(-c3nc4cc(C)c(Cl)cc4[nH]3)cc2)cc1Br

inhibition [2]: 30%
SMILES: CCOc1ccc(C(=O)Nc2ccc(-c3nc4cc(Cl)c(Cl)cc4[nH]3)cc2)cc1Br

inhibition [1]: < 10%
SMILES: COc1ccc(C(=O)Nc2cccc(CNc3ccc(-c4nc5ccccc5[nH]4)cc3)c2)cc1Br

The next lines start with the molecule.

SMILES: COc1ccc(C(=O)N(C)c2ccc(-c3nc4ccccc4[nH]3)cc2)cc1Br
IC50 (Heparanase): > 15 µM

SMILES: COc1ccc(C(=O)Nc2ccc(CNc3ccc(Cc4nc5ccccc5[nH]4)cc3)cc2)cc1Br
inhibition [1]: < 10%

SMILES: COc1ccc(NC(=O)c2ccc(-c3nc4ccccc4[nH]3)cc2)cc1Br
IC50 (Heparanase): > 15 µM

SMILES: CCOc1ccc(C(=O)Nc2ccc(-c3nc4cc(OC)c(OC)cc4[nH]3)cc2)cc1Br
inhibition [2]: 35%

SMILES: COc1ccc(S(=O)(=O)Nc2ccc(-c3nc4ccccc4[nH]3)cc2)cc1Br
IC50 (Heparanase): > 15 µM

SMILES: COc1ccc(CC(=O)Nc2ccc(-c3nc4ccccc4[nH]3)cc2)cc1Br
IC50 (Heparanase): > 15 µM

SMILES: COc1ccc(C(=O)Nc2ccc(CNc3ccc(-c4nc5ccccc5[nH]4)cn3)cc2)cc1Br
concentration at 1 h [5]: 3800 nM | concentration at 4 h [6]: 5500 nM

Source: ChEMBL document CHEMBL1147775, “N-(4-{[4-(1H-Benzoimidazol-2-yl)-arylamino]-methyl}-phenyl)-benzamide derivatives as small molecule heparanase inhibitors” (Bioorg Med Chem Lett, 2006)
